Data reported in US9211310B2, “Use of a Chinese medicine composition in preparing medicaments for treating secondary prevention of myocardial infarction” (TASLY PHARMACEUTICAL GROUP CO., LTD, priority 2010, dated 2015).

Test system: patients after acute myocardial infarction
Experiment: TCM symptom score, total and single (chest pain, chest tightness, short breath, fatigue, palpitation, spontaneous perspiration, pale complexion), same clinical trial
Format: in vivo, human
Design: total score of TCM symptom, Mean / total score of TCM symptom, Min / total score of TCM symptom, Max / total score of TCM symptom, Md / change of total score of TCM symptom, Mean / change of total score of TCM symptom, Max / change of total score of TCM symptom, Md: scale not given here
Conditions: PP
Excerpt: 3508 patients who were in accordance with the diagnostic standards of AMI for 28 days to 2 years and differentiated as Qi deficiency and blood stagnation syndrome by TCM were studied. 0.5 g Chinese medicine composition prepared by the method of EXAMPLE 1 (Coded as QSYQ) was administrated half an hour after meal, 3 times per day.
They included the overall survival time, angina pectoris score, TCM symptom score and life quality score, where angina pectoris score, TCM symptom score and life quality score were evaluated at randomization, in 1st, 3rd, 6th, 9th, 12th month after treatment and 18th month after follow-up.
The analysis method referred to the angina pectoris score.

[1] = 9 months after treatment-baseline
[2] = 12 months after treatment-baseline

## CC(=O)Oc1ccccc1C(=O)O [Control group, aspirine]
[1]
  change of spontaneous perspiration −2, percent of patients: (0.43%)
  change of spontaneous perspiration −3, number of patients: 0
  change of spontaneous perspiration −3, percent of patients: (0.00%)
  change of total score of TCM symptom, Max: 15.00
  change of total score of TCM symptom, Md: −4.00
  change of total score of TCM symptom, Mean: −5.04
12 months after treatment
  change of short breath 0, number of patients: 743
  distribution of total score of TCM symptom: Medium, number of patients: 229
  distribution of total score of TCM symptom: Medium, percentage of patients: (16.33%)
  distribution of total score of TCM symptom: Mild, number of patients: 1172
  distribution of total score of TCM symptom: Mild, percentage of patients: (83.59%)
  distribution of total score of TCM symptom: Severe, number of patients: 1
  distribution of total score of TCM symptom: Severe, percentage of patients: (0.07%)
  fatigue score 0, % of patients: (39.06%)
  fatigue score 0, number of patients: 548
  fatigue score 2, % of patients: (58.16%)
  fatigue score 2, number of patients: 816
  fatigue score 4, % of patients: (2.64%)
  fatigue score 4, number of patients: 37
  fatigue score 6, % of patients: (0.14%)
  fatigue score 6, number of patients: 2
  pale complexion score 0, number of patients: 870
  pale complexion score 0, percent of patients: (62.01%)
  pale complexion score 1, number of patients: 463
  pale complexion score 1, percent of patients: (33.00%)
  pale complexion score 2, number of patients: 63
  pale complexion score 2, percent of patients: (4.49%)
  pale complexion score 3, number of patients: 7
  pale complexion score 3, percent of patients: (0.50%)
  palpitation score 0, number of patients: 576
  palpitation score 0, percent of patients: (41.05%)
  palpitation score 2, number of patients: 745
  palpitation score 2, percent of patients: (53.10%)
  palpitation score 4, number of patients: 78
  palpitation score 4, percent of patients: (5.56%)
  palpitation score 6, number of patients: 4
  palpitation score 6, percent of patients: (0.29%)
  short breath score 0, % of patients: (33.36%)
  short breath score 0, number of patients: 468
  short breath score 3, % of patients: (58.45%)
  short breath score 3, number of patients: 820
  short breath score 6, % of patients: (8.20%)
  short breath score 6, number of patients: 115
  short breath score 9, % of patients: (0.00%)
  short breath score 9, number of patients: 0
  spontaneous perspiration score 0, number of patients: 730
  spontaneous perspiration score 0, percent of patients: (52.03%)
  spontaneous perspiration score 1, number of patients: 640
  spontaneous perspiration score 1, percent of patients: (45.62%)
  spontaneous perspiration score 2, number of patients: 31
  spontaneous perspiration score 2, percent of patients: (2.21%)
  spontaneous perspiration score 3, number of patients: 2
  spontaneous perspiration score 3, percent of patients: (0.14%)
  total score of TCM symptom, Max: 28.00
  total score of TCM symptom, Md: 7.00
  total score of TCM symptom, Mean: 7.81
  total score of TCM symptom, Min: 0.00
[2]
  change of fatigue 0, % of patients: (44.10%)
  change of fatigue 0, number of patients: 617
  change of fatigue 2, % of patients: (38.03%)
  change of fatigue 2, number of patients: 532
  change of fatigue 4, % of patients: (10.51%)
  change of fatigue 4, number of patients: 147
  change of fatigue 6, % of patients: (1.64%)
  change of fatigue 6, number of patients: 23
  change of fatigue −2, % of patients: (5.43%)
  change of fatigue −2, number of patients: 76
  change of fatigue −4, % of patients: (0.29%)
  change of fatigue −4, number of patients: 4
  change of pale complexion 0, number of patients: 967
  change of pale complexion 0, percent of patients: (69.22%)
  change of pale complexion 1, number of patients: 393
  change of pale complexion 1, percent of patients: (28.13%)
  change of pale complexion −1, number of patients: 37
  change of pale complexion −1, percent of patients: (2.65%)
  change of palpitation 0, number of patients: 679
  change of palpitation 0, percent of patients: (48.53%)
  change of palpitation 1, number of patients: 536
  change of palpitation 1, percent of patients: (38.31%)
  change of palpitation 2, number of patients: 97
  change of palpitation 2, percent of patients: (6.93%)
  change of palpitation 3, number of patients: 6
  change of palpitation 3, percent of patients: (0.43%)
  change of palpitation −1, number of patients: 78
  change of palpitation −1, percent of patients: (5.58%)
  change of palpitation −2, number of patients: 3
  change of palpitation −2, percent of patients: (0.21%)
  change of spontaneous perspiration 0, number of patients: 647
  change of spontaneous perspiration 0, percent of patients: (46.28%)
  change of spontaneous perspiration 1, number of patients: 483
  change of spontaneous perspiration 1, percent of patients: (34.55%)
  change of spontaneous perspiration 2, number of patients: 128
  change of spontaneous perspiration 2, percent of patients: (9.16%)
  change of spontaneous perspiration 3, number of patients: 29
  change of spontaneous perspiration 3, percent of patients: (2.07%)
  change of spontaneous perspiration −1, number of patients: 103
  change of spontaneous perspiration −1, percent of patients: (7.37%)
  change of spontaneous perspiration −2, number of patients: 8
  change of spontaneous perspiration −2, percent of patients: (0.57%)
  change of total score of TCM symptom, Max: 18.00
  change of total score of TCM symptom, Md: −5.00
  change of total score of TCM symptom, Mean: −6.09
  change of total score of TCM symptom, Min: −28.00
Baseline
  distribution of total score of TCM symptom: Medium, number of patients: 717
  distribution of total score of TCM symptom: Medium, percentage of patients: (48.78%)
  distribution of total score of TCM symptom: Mild, number of patients: 701
  distribution of total score of TCM symptom: Mild, percentage of patients: (47.69%)
  distribution of total score of TCM symptom: Severe, number of patients: 52
  distribution of total score of TCM symptom: Severe, percentage of patients: (3.54%)
  fatigue score 0, % of patients: (18.22%)
  fatigue score 0, number of patients: 268
  fatigue score 2, % of patients: (60.50%)
  fatigue score 2, number of patients: 890
  fatigue score 4, % of patients: (17.74%)
  fatigue score 4, number of patients: 261
  fatigue score 6, % of patients: (3.54%)
  fatigue score 6, number of patients: 52
  pale complexion score 0, number of patients: 494
  pale complexion score 0, percent of patients: (33.61%)
  pale complexion score 1, number of patients: 626
  pale complexion score 1, percent of patients: (42.59%)
  pale complexion score 2, number of patients: 293
  pale complexion score 2, percent of patients: (19.93%)
  pale complexion score 3, number of patients: 57
